According to US20250179047A1, “5-[7-(3,4-DIHYDRO-1H-ISOQUINOLINE-2-CARBONYL)-1,2,3,4 TETRAHYDROISOQUINOLIN-6-YL]-1H-PYRROLE-3-CARBOXAMIDE DERIVATIVES, PHARMACEUTICAL COMPOSITIONS CONTAINING THEM AND THEIR USES AS PRO-APOPTOTIC AGENTS” (LES LABORATOIRES SERVIER, priority 2022, published 2025):

How the values were obtained:
BCLXL WT = BCLXL WT (Homo sapiens (Human), UniProt Q07817); assay: TR-FRET competitive binding assay, BCLXL WT; conditions: for Ki: BCLXL WT, Ki determined from IC50, read-out: TR_FRET EKI BclxL; for TR_FRET EKI BCLxL/WT selectivty ratio: ratio Ki BCLxL / Ki BCL2 WT
Method in brief: (§1)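 Terbium-labelled N-terminal Halo-fusion BCL2 or BCLXL (E. coli), 0.5 nM, competed against fluorescein-labelled PUMA peptide (2 or 20 nM) for 2 h at 23° C in 50 mM Hepes pH 7.5, 150 mM NaCl, 5% DMSO. TR-FRET 520/495 nm ratio gave IC50 by four-parameter fit; Ki derived from IC50.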

BCL2 D103Y = BCL2 D103Y (Homo sapiens, UniProt P10415, D103Y); assay: TR-FRET competitive binding assay, BCL2 D103Y; conditions: Ki determined from IC50, read-out: TR_FRET EKI_Bcl2 D103Y
Method in brief: as §1

KMS-12-PE Bcl-2 WT = assay: In vitro cytotoxicity CellTiter-Glo 48 h, KMS-12-PE Bcl-2 WT; assay type: cell-based; conditions: Homo sapiens, KMS-12-PE, C50 = concentration needed to reach 50% of the cellular viability
Method in brief: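 Potency is expressed as C50, the compound concentration at which viability of engineered KMS-12-PE cells (Bcl-2 wild type or G101V) falls to 50%, determined from CellTiter-Glo luminescence after 48 h of treatment over 11 concentrations.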

BCL2 WT = BCL2 WT (Homo sapiens (Human), UniProt P10415); assay: TR-FRET competitive binding assay, BCL2 WT; conditions: Ki determined from IC50, read-out: TR_FRET EKI_Bcl2 WT
Method in brief: as §1

BCL2 G101V [1] = assay: TR-FRET competitive binding assay, BCL2 G101V; design: species or system human; conditions: ratio Ki BCL2 G101V / Ki BCL2 WT
Method in brief: as §1

BCL2 G101V [2] = molecular target: BCL2 G101V (Homo sapiens, UniProt P10415, G101V); assay: TR-FRET competitive binding assay, BCL2 G101V; conditions: BCL2 G101V; Ki determined from IC50; read-out: TR_FRET EKI_Bcl2 G101V
Method in brief: as §1

Chain of BCLXL WT (Q07817 other isoform, or with tags, fused parts or gaps): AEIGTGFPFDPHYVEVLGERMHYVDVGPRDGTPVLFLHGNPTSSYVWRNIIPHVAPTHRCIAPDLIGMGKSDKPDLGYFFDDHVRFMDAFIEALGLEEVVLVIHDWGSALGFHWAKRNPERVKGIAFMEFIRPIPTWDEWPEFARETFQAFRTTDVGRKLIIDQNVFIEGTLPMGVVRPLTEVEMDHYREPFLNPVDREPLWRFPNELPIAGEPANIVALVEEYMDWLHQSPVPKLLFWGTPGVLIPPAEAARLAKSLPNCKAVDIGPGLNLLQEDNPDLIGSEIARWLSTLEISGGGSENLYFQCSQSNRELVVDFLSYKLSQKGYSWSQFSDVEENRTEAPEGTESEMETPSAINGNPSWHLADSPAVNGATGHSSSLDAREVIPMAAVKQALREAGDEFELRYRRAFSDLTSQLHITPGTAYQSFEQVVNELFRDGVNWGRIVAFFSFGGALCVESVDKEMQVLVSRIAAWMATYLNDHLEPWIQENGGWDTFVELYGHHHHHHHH

Structure (SMILES)	Ki (BCLXL WT)	TR_FRET EKI BCLxL/WT selectivty ratio (BCLXL WT)	Ki (BCL2 D103Y)	Ki (BCL2 WT)	TR_FRET EKI G101V/WT selectivty ratio (BCL2 G101V [1])	Ki (BCL2 G101V [2])	IC50 (KMS-12-PE Bcl-2 WT)
COc1ncc(N(C(=O)c2cc(-c3cc4c(cc3C(=O)N3Cc5ccccc5C[C@H]3C)CN(C(=O)Cc3ccc(OCCN5CCOCC5)cc3F)CC4)n(C)c2C)c2ccccc2)cc1C#N [Example 202, N-(5-cyano-6-methoxy-3-pyridyl)-5-[2-[2-[2-fluoro-4-(2-morpholinoethoxy)phenyl]acetyl]-7-[(3R)-3-methyl-3,4-dihydro-1H-isoquinoline-2-carbonyl]-3,4-dihydro-1H-isoquinolin-6-yl]-1,2-dimethyl-N-phenyl-pyrrole-3-carboxamide]	10.9 nM	214.7	0.11 nM	0.05 nM	22.9	1.2 nM	0.0256 µM
Cc1c(C(=O)N(c2ccc(F)cc2)c2cnn(C)c2)cc(-c2cc3c(cc2C(=O)N2Cc4ccccc4C[C@H]2C)CN(C(=O)Cc2ccc(OCCN4CCOCC4)cc2)CC3)n1C [Example 200, N-(4-fluorophenyl)-1,2-dimethyl-5-[7-[(3R)-3-methyl-3,4-dihydro-1H-isoquinoline-2-carbonyl]-2-[2-[4-(2-morpholinoethoxy)phenyl]acetyl]-3,4-dihydro-1H-isoquinolin-6-yl]-N-(1-methylpyrazol-4-yl)pyrrole-3-carboxamide]	26 nM	419.8	0.15 nM	0.06 nM	88.0	5.5 nM	0.0155 µM
Cc1c(C(=O)N(c2ccccc2)c2cnn(C(F)F)c2)cc(-c2cc3c(cc2C(=O)N2Cc4ccccc4C[C@H]2C)CN(C(=O)Cc2ccc(OCCN4CCOCC4)cc2F)CC3)n1C [Example 193, N-[1-(difluoromethyl)pyrazol-4-yl]-5-[2-[2-[2-fluoro-4-(2-morpholinoethoxy)phenyl]acetyl]-7-[(3R)-3-methyl-3,4-dihydro-1H-isoquinoline-2-carbonyl]-3,4-dihydro-1H-isoquinolin-6-yl]-1,2-dimethyl-N-phenyl-pyrrole-3-carboxamide]	11 nM	256.9	0.1 nM	0.04 nM	72.0	3.1 nM	0.0062 µM

Now from value to compound, other results behind:

Ki (BCLXL WT)	TR_FRET EKI BCLxL/WT selectivty ratio (BCLXL WT)	Ki (BCL2 D103Y)	Ki (BCL2 WT)	TR_FRET EKI G101V/WT selectivty ratio (BCL2 G101V [1])	Ki (BCL2 G101V [2])	Structure (SMILES)	IC50 (KMS-12-PE Bcl-2 WT)
9 nM	248.7	0.09 nM	0.04 nM	9.9	0.4 nM	COc1ccc(N(C(=O)c2cc(-c3cc4c(cc3C(=O)N3Cc5ccccc5C[C@H]3CN3CC5(CCC5)C3)CN(C(=O)Cc3ccc(OCCN5CCOCC5)cc3F)CC4)n(C)c2C)c2ccc(O)cc2)cc1C#N [Example 181, 5-[7-[(3S)-3-(2-azaspiro[3.3]heptan-2-ylmethyl)-3,4-dihydro-1H-isoquinoline-2-carbonyl]-2-[2-[2-fluoro-4-(2-morpholinoethoxy)phenyl]acetyl]-3,4-dihydro-1H-isoquinolin-6-yl]-N-(3-cyano-4-methoxy-phenyl)-N-(4-hydroxyphenyl)-1,2-dimethyl-pyrrole-3-carboxamide]	0.0194 µM
1 nM	108.9	0.03 nM	0.01 nM	46.6	0.4 nM	Cc1c(N(C(=O)c2cc(-c3cc4c(cc3C(=O)N3Cc5ccccc5C[C@H]3C)CN(C(=O)Cc3ccc(OCCN(C)C)cc3F)CC4)n(C)c2C)c2ccccc2)cc(C#N)n1C [Example 213, N-(5-cyano-1,2-dimethyl-pyrrol-3-yl)-5-[2-[2-[4-[2-(dimethylamino)ethoxy]-2-fluoro-phenyl]acetyl]-7-[(3R)-3-methyl-3,4-dihydro-1H-isoquinoline-2-carbonyl]-3,4-dihydro-1H-isoquinolin-6-yl]-1,2-dimethyl-N-phenyl-pyrrole-3-carboxamide]	0.0053 µM
